Data taken from US7728169B2, “Pharmaceutical compositions of isolated orthorhombic crystalline 4-[6-acetyl-3-[3-(4-acetyl-3-hydroxy-2-propylphenylthio)propoxy]-2-propylphenoxy]butyric acid and methods of use” (Medicinova, Inc., priority 2003, dated 2010).
Values after ≈ are worked out from the molar mass of the structure shown. Like-named read-outs stand apart in the source and are kept apart here.

Assays:
[1] = Solubility of compound (1) in ethanol/water (2:1); assay type: physicochemical; settings: 40° C., stirred one hour, listed as V (form A)
Protocol: Samples of compound (1) (5 g) were suspended in ethanol/water (2:1, 100 mL) and stirred for one hour at temperatures of 22° C., 30° C., and 40° C., respectively. The suspensions were filtered and the solids dried in a vacuum oven at room temperature overnight to give the insoluble material. The solubilities were calculated by subtractive means based on recovered material.

[2] = Solubility compared to other polymorphs (solvent not given); assay type: physicochemical
[3] = tested on: asthma and allergic diseases; test: Oral activity for treatment of asthma and allergic diseases; assay type: in vivo

Row | Solubility [1] | solubility compared to other crystalline forms [2] | solubility compared to other crystalline forms ([2]; listed as form A) | SMILES | oral activity for treatment of asthma and allergic diseases [3]
1 | 46 mg/mL (≈ 86.7 mM) | superior | high | CCCc1c(SCCCOc2ccc(C(C)=O)c(OCCCC(=O)O)c2CCC)ccc(C(C)=O)c1O [Form V, 4-[6-acetyl-3-[3-(4-acetyl-3-hydroxy-2-propylphenylthio)propoxy]-2-propylphenoxy]butyric acid] | 
2 |  |  |  | CCCc1c(SCCCOc2ccc(C(C)=O)c(OCCCC(=O)O)c2CCC)ccc(C(C)=O)c1O [compound (1), 4-[6-acetyl-3-[3-(4-acetyl-3-hydroxy-2-propylphenylthio)propoxy]-2-propylphenoxy]butyric acid] | orally active
